According to PubChem BioAssay (NCI):
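Five concentrations, 48 hours, 96-well plates. TGI is the concentration that stops growth completely.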

What was measured:
Test in all cases: NCI-60 cell line screen, 48 h
K-562 leukemia = system: K-562 leukemia
SK-OV-3 ovarian = system: SK-OV-3 ovarian
CCRF-CEM leukemia = system: CCRF-CEM leukemia
OVCAR-8 ovarian = system: OVCAR-8 ovarian
MALME-3M melanoma = system: MALME-3M melanoma
LOX IMVI melanoma = system: LOX IMVI melanoma
MDA-MB-435 = system: MDA-MB-435
OVCAR-4 ovarian = system: OVCAR-4 ovarian
KM12 colon = system: KM12 colon
NCI-H460 lung = system: NCI-H460 lung
HCT-116 colon = system: HCT-116 colon
OVCAR-3 ovarian = system: OVCAR-3 ovarian
SN12C renal = system: SN12C renal
IGROV1 ovarian = system: IGROV1 ovarian
OVCAR-5 ovarian = system: OVCAR-5 ovarian
SK-MEL-2 melanoma = system: SK-MEL-2 melanoma
MDA-N = system: MDA-N
HOP-92 NSCLC = system: HOP-92 NSCLC
HCC-2998 colon = system: HCC-2998 colon
MDA-MB-231 breast = system: MDA-MB-231 breast
SNB-75 CNS = system: SNB-75 CNS
SNB-19 CNS = system: SNB-19 CNS
DU-145 prostate = system: DU-145 prostate
SK-MEL-28 melanoma = system: SK-MEL-28 melanoma
COLO 205 colon = system: COLO 205 colon
M14 melanoma = system: M14 melanoma
A549 NSCLC = system: A549 NSCLC
SR leukemia = system: SR leukemia
NCI-H226 lung = system: NCI-H226 lung
EKVX NSCLC = system: EKVX NSCLC
SF-295 CNS = system: SF-295 CNS
786-0 renal = system: 786-0 renal
RPMI-8226 leukemia = system: RPMI-8226 leukemia
TK-10 renal = system: TK-10 renal
SW-620 colon = system: SW-620 colon
BT-549 breast = system: BT-549 breast
MCF7 breast = system: MCF7 breast
CAKI-1 renal = system: CAKI-1 renal
PC-3 prostate = system: PC-3 prostate
RXF 393 renal = system: RXF 393 renal
UACC-62 melanoma = system: UACC-62 melanoma
SK-MEL-5 melanoma = system: SK-MEL-5 melanoma
SF-268 CNS = system: SF-268 CNS
NCI-H23 lung = system: NCI-H23 lung
ACHN renal = system: ACHN renal
HOP-62 NSCLC = system: HOP-62 NSCLC
HT29 colon = system: HT29 colon
MOLT-4 leukemia = system: MOLT-4 leukemia
U251 CNS = system: U251 CNS
NCI-H522 lung = system: NCI-H522 lung
HCT-15 colon = system: HCT-15 colon
UO-31 renal = system: UO-31 renal
SF-539 CNS = system: SF-539 CNS
UACC-257 melanoma = system: UACC-257 melanoma
NCI/ADR-RES ovarian = system: NCI/ADR-RES ovarian

Measured: TGI

COC(=O)[C@@]12CCCC(=O)[C@@H]1[C@H]1CCC[C@H]12
> 100 µM: all assays above
